# From US12077503B2, “Substituted cyclic amides and their use as herbicides” (FMC CORPORATION, priority 2015, dated 2024)
# How the values were obtained:
# Format in all cases: in vivo
# [1] = tested on: giant foxtail (Setaria faberii); assay: Test A preemergence; conditions: Setaria faberi, pre-emergence, 240 h, preemergence, 0 to 100 scale where 0 is no effect and 100 is complete control, read-out: Foxtail, Giant plant response rating
# Procedure, shortened: (§1)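 Each rating is a visual injury score from 0 to 100 given about 10 d after treatment, judged against untreated controls kept alongside in the greenhouse. In loam soil–sand blend, seeds got a preemergence directed soil spray, while postemergence plants were 2 to 10 cm tall at spraying.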
# [2] = tested on: ryegrass, Italian (Italian ryegrass, Lolium multiflorum); assay: Test A preemergence; conditions: Lolium multiflorum, pre-emergence, 240 h, preemergence, 0 to 100 scale where 0 is no effect and 100 is complete control, read-out: Ryegrass, Italian plant response rating
# Procedure, shortened: as §1
# [3] = tested on: barnyardgrass (Echinochloa crus-galli); assay: Test A preemergence; conditions: Echinochloa crus-galli, pre-emergence, 240 h, preemergence, 0 to 100 scale where 0 is no effect and 100 is complete control, read-out: Barnyardgrass plant response rating
# Procedure, shortened: as §1
# [4] = tested on: pigweed (Amaranthus retroflexus); assay: Test A preemergence; conditions: Amaranthus retroflexus, pre-emergence, 240 h, preemergence, 0 to 100 scale where 0 is no effect and 100 is complete control, read-out: Pigweed plant response rating
# [5] = tested on: ragweed (common ragweed, Ambrosia elatior); assay: Test A preemergence; conditions: Ambrosia artemisiifolia, pre-emergence, 240 h, preemergence, 0 to 100 scale where 0 is no effect and 100 is complete control, read-out: Ragweed plant response rating
# Procedure, shortened: as §1
# [6] = tested on: Kochia (Kochia scoparia); assay: Test A preemergence; conditions: Bassia scoparia, pre-emergence, 240 h, preemergence, 0 to 100 scale where 0 is no effect and 100 is complete control, read-out: Kochia plant response rating
# Procedure, shortened: as §1
# [7] = tested on: wheat (Triticum aestivum); assay: Test A postemergence; conditions: Triticum aestivum, post-emergence, 240 h, postemergence
# Procedure, shortened: as §1
# [8] = tested on: giant foxtail (Setaria faberii); assay: Test A postemergence; conditions: Setaria faberi, post-emergence, 240 h, postemergence
# Procedure, shortened: as §1
# [9] = tested on: ryegrass, Italian (Italian ryegrass, Lolium multiflorum); assay: Test A postemergence; conditions: Lolium multiflorum, post-emergence, 240 h, postemergence
# Procedure, shortened: as §1
# [10] = tested on: barnyardgrass (Echinochloa crus-galli); assay: Test A postemergence; conditions: Echinochloa crus-galli, post-emergence, 240 h, postemergence
# Procedure, shortened: as §1
# [11] = tested on: pigweed (Amaranthus retroflexus); assay: Test A postemergence; conditions: Amaranthus retroflexus, post-emergence, 240 h, postemergence
# Procedure, shortened: as §1
# [12] = tested on: blackgrass (Alopecurus myosuroides); assay: Test A postemergence; conditions: Alopecurus myosuroides, post-emergence, 240 h, postemergence
# Procedure, shortened: as §1
# [13] = tested on: ragweed (common ragweed, Ambrosia elatior); assay: Test A postemergence; conditions: Ambrosia artemisiifolia, post-emergence, 240 h, postemergence
# Procedure, shortened: as §1
# [14] = tested on: corn (Zea mays); assay: Test A postemergence; conditions: Zea mays, post-emergence, 240 h, postemergence
# Procedure, shortened: as §1
# [15] = tested on: Galium (catchweed bedstraw, Galium aparine); assay: Test A postemergence; conditions: Galium, post-emergence, 240 h, postemergence
# Procedure, shortened: as §1
# [16] = tested on: Kochia (Kochia scoparia); assay: Test A postemergence; conditions: Bassia scoparia, post-emergence, 240 h, postemergence
# Procedure, shortened: as §1
# [17] = 125 g ai/ha, visual injury rating, approximately 10 d
smiles,measurement,setting,value
CN1C[C@H](c2ccc(C#N)cc2)[C@@H](C(=O)Nc2ccc(F)c(F)c2F)C1=O [Compound 1229],pest or weed control at 125 g/ha,[1]; [17],100%
same,pest or weed control at 500 g/ha,[1]; 500 g ai/ha,100%
same,pest or weed control at 125 g/ha,[2]; [17],0%
same,pest or weed control at 500 g/ha,[2]; 500 g ai/ha,40%
same,pest or weed control at 125 g/ha,[3]; [17],90%
same,pest or weed control at 500 g/ha,[3]; 500 g ai/ha,100%
same,pest or weed control at 125 g/ha,[4]; [17],60%
same,pest or weed control at 500 g/ha,[4]; 500 g ai/ha,90%
same,pest or weed control at 125 g/ha,[5]; [17],60%
same,pest or weed control at 500 g/ha,[5]; 500 g ai/ha,70%
same,pest or weed control at 125 g/ha,[6]; [17],90%
same,pest or weed control at 500 g/ha,[6]; 500 g ai/ha,90%
same,plant injury at 125 g/ha,"[7]; 125 g ai/ha, visual injury vs untreated controls after approx. 10 d, 0 = no effect, 100 = complete control, read-out: Wheat plant response rating (0 to 100 scale)",0%
same,plant injury at 500 g/ha,"[7]; 500 g ai/ha, 0 to 100 scale, 0 is no effect, 100 is complete control, read-out: Wheat plant response rating",50%
same,pest or weed control at 125 g/ha,"[8]; 125 g ai/ha, visual injury vs untreated controls after approx. 10 d, 0 = no effect, 100 = complete control, read-out: Foxtail, Giant plant response rating (0 to 100 scale)",90%
same,pest or weed control at 500 g/ha,"[8]; 500 g ai/ha, 0 to 100 scale, 0 is no effect, 100 is complete control, read-out: Foxtail, Giant plant response rating",90%
same,pest or weed control at 125 g/ha,"[9]; 125 g ai/ha, visual injury vs untreated controls after approx. 10 d, 0 = no effect, 100 = complete control, read-out: Ryegrass, Italian plant response rating (0 to 100 scale)",0%
same,pest or weed control at 500 g/ha,"[9]; 500 g ai/ha, 0 to 100 scale, 0 is no effect, 100 is complete control, read-out: Ryegrass, Italian plant response rating",40%
same,pest or weed control at 125 g/ha,"[10]; 125 g ai/ha, visual injury vs untreated controls after approx. 10 d, 0 = no effect, 100 = complete control, read-out: Barnyardgrass plant response rating (0 to 100 scale)",100%
same,pest or weed control at 500 g/ha,"[10]; 500 g ai/ha, 0 to 100 scale, 0 is no effect, 100 is complete control, read-out: Barnyardgrass plant response rating",100%
same,pest or weed control at 125 g/ha,"[11]; 125 g ai/ha, visual injury vs untreated controls after approx. 10 d, 0 = no effect, 100 = complete control, read-out: Pigweed plant response rating (0 to 100 scale)",40%
same,pest or weed control at 500 g/ha,"[11]; 500 g ai/ha, 0 to 100 scale, 0 is no effect, 100 is complete control, read-out: Pigweed plant response rating",60%
same,pest or weed control at 125 g/ha,"[12]; 125 g ai/ha, visual injury vs untreated controls after approx. 10 d, 0 = no effect, 100 = complete control, read-out: Blackgrass plant response rating (0 to 100 scale)",0%
same,pest or weed control at 500 g/ha,"[12]; 500 g ai/ha, 0 to 100 scale, 0 is no effect, 100 is complete control, read-out: Blackgrass plant response rating",40%
same,pest or weed control at 125 g/ha,"[13]; 125 g ai/ha, visual injury vs untreated controls after approx. 10 d, 0 = no effect, 100 = complete control, read-out: Ragweed plant response rating (0 to 100 scale)",0%
same,pest or weed control at 500 g/ha,"[13]; 500 g ai/ha, 0 to 100 scale, 0 is no effect, 100 is complete control, read-out: Ragweed plant response rating",0%
same,plant injury at 125 g/ha,"[14]; 125 g ai/ha, visual injury vs untreated controls after approx. 10 d, 0 = no effect, 100 = complete control, read-out: Corn plant response rating (0 to 100 scale)",0%
same,plant injury at 500 g/ha,"[14]; 500 g ai/ha, 0 to 100 scale, 0 is no effect, 100 is complete control, read-out: Corn plant response rating",0%
same,pest or weed control at 125 g/ha,"[15]; 125 g ai/ha, visual injury vs untreated controls after approx. 10 d, 0 = no effect, 100 = complete control, read-out: Galium plant response rating (0 to 100 scale)",40%
same,pest or weed control at 500 g/ha,"[15]; 500 g ai/ha, 0 to 100 scale, 0 is no effect, 100 is complete control, read-out: Galium plant response rating",50%
same,pest or weed control at 125 g/ha,"[16]; 125 g ai/ha, visual injury vs untreated controls after approx. 10 d, 0 = no effect, 100 = complete control, read-out: Kochia plant response rating (0 to 100 scale)",70%
same,pest or weed control at 500 g/ha,"[16]; 500 g ai/ha, 0 to 100 scale, 0 is no effect, 100 is complete control, read-out: Kochia plant response rating",80%
